In patent publication US20150038707A1, “PROCESS FOR MAKING CGRP RECEPTOR ANTAGONISTS” (Merck Sharp & Dohme Corp., priority 2012, published 2015):
Several values for one entry are separate records, joined by “and”; a condition that tells them apart may be missing. Equal values may be shown once.

Columns and labels:
[1] = tested on: Ae. aegypti Thai strain (pyrethroid tolerant); assay: Toxicity assay on treated netting (Example 7), Thai strain; type: in vivo
Procedure: (§1) Several compounds were tested to determine their toxic effect on Ae. aegypti mosquitoes. Three mosquito strains were tested—Houston which is pyrethroid susceptible, That which is pyrethroid tolerant and Isla Mujer which is metabolically pyrethroid resistant.
(§2) The toxicity assay involved a single chamber to which treated netting was added. Twenty (20) mosquitoes were transferred to the chamber. After 1 hour, the number of knocked down mosquitoes was recorded and all mosquitoes were transferred to holding cartoons. The mosquitoes were given a 10% sucrose-soaked cotton ball and returned to the insectary. Mortaility was measured after 24 hours. A control assay using acetone-treated netting was used. Six replicates were performed at each treatment concentration.

[2] = tested on: female Aedes aegypti (Thailand strain) mosquitoes; assay: Contact irritancy and spatial repellency screening (Example 4); type: in vivo; settings: Dosage 25 nmol/cm^2; mapped with 3000 other compounds
Procedure: (§3) Four compounds of formula (I) were tested for contact irritancy (i.e., movement away from the source after physical contact) at low doses on female Aedes aegypti (Thailand strain) mosquitoes. The contact irritant response was determined by use of the contact irritant assay disclosed by Grieco et al. in “A New Classification System for the Actions of IRS Chemicals Traditionally Used for Malaria Control,” Plos One, Issue 8 (2007) (available at www.plosone.org). The assay used was a cylindrical assembly that included a metal treatment end to which 10 mosquitoes were introduced and a clear receiving chamber. The treatment end included a netting strip (nylon organdy) that was treated with the insecticide of interest at the relevant dose. A butterfly valve separated the treatment end from the remainder of the assembly.
The four compounds of formula I described in Example 2 were tested for spatial repellency (directed movement away from the chemical source without the insect making physical contact with the treated surface) at low doses on female Aedes aegypti (Thailand strain) mosquitoes. The spatial repellency response was determined by use of the spatial repellency assay disclosed by Grieco et al. in “A New Classification System for the Actions of IRS Chemicals Traditionally Used for Malaria Control” in Plos One, Issue 8 (2007) (available at www.plosone.org) which is incorporated herein by reference for all relevant and consistent purposes. The assay used was a cylindrical assembly that included a treatment chamber at one end and a control chamber at the other end. The treatment chamber included a netting strip (nylon organdy) that was treated with the insecticide of interest at the relevant dose. The treatment chamber and control chamber were connected by a clear cylinder and were separated from the clear cylinder by butterfly valves. Twenty (20) mosquitoes were introduced into the clear central chamber and the butterfly valves were opened after 30 seconds. After 10 minutes, the valves were closed and the number of mosquitoes in each chamber was counted.
Dosage was 25 nmol/cm^2. Several known compounds were also mapped for comparison—alphacypermethrin, cypermethrin, propoxur, bendiocarb, permethrin, SS220, DDT, deet and chlorpyrifos.

[3] = tested on: female Aedes aegypti (Thailand strain) mosquitoes; assay: Contact irritancy assay on mosquitoes (Example 2); type: in vivo; settings: netting treated at 0.0025-2.5 nmol/cm^2; 10 minutes
Procedure: as §3
(§4) Each composition was applied to the netting strip at a varied dose via a 1.5 ml acetone solution. Four (4) treatment concentrations were used—0.0025 nmol/cm^2, 0.025 nmol/cm^2, 0.25 nmol/cm^2 and 2.5 nmol/cm^2. Netting was allowed to dry for 15 minutes prior to placement in the cylinder. Control assays were performed with netting treated with acetone only.
(§5) For each run, 10 mosquitoes were transferred into the treatment end of the assembly and, after 30 seconds, the butterfly valve was opened. The valve was closed after 10 minutes and the number of mosquitoes in the clear end (i.e., the number of escaped mosquitoes) was tested.

[4] = tested on: KDR Resisant An. Gambiae; assay: Bottle toxicity assay (Example 8), knockdown resistant mosquitoes; type: in vivo, Anopheles gambiae
Procedure: Several compounds were tested to determine their toxic effect on knockdown resistant Anopheles gambiae mosquitoes and susceptible mosquitoes. Acetone and different amounts of pesticides were added to 250 ml bottles. In one bottle, only acetone was added as a control. The bottles were rotated in all directions while uncapped until all acetone was evaporated and the insecticide was coated onto the inside surfaces of the bottle. A number of knockdown resistant Anopheles gambiae mosquitoes were added to the bottle. The number of dead mosquitoes was recorded at 1 hour and 24 hours.

[5] = tested on: Ae. aegypti Houston strain (pyrethroid susceptible); assay: Toxicity assay on treated netting (Example 7), Houston strain; type: in vivo
Procedure: as §1, §2

[6] = tested on: Ae. Aegypti, That strain (pyrethroid tolerant); assay: Contact irritancy on pyrethroid tolerant mosquitoes (Example 5); type: in vivo
Procedure: as §3, §4, §5
The contact irritancy protocol of Example 2 was used to determine contact irritancy against mosquitoes (Ae. Aegypti) that had acquired metabolic resistance against pyrethroids. Alphacypermethrin and transfluthrin were also tested. Three mosquito strains were tested—Houston which is pyrethroid susceptible, That which is pyrethroid tolerant and Isla Mujer which is metabolically pyrethroid resistant.

[7] = tested on: mosquitoes (Ae. aegypti); assay: Compound residual life: contact irritancy (Example 10); type: in vivo; settings: for Number escaping (mean +/- SE), treated: 10 mosquitoes per run, 6 runs per net sample
Procedure: as §3
Contact irritancy tests (blind testing) were performed for several samples of compounds 1405 and 1406 at 0 weeks, 2 weeks, 4 weeks, 8 weeks and 12 weeks to determine the residual contact irritancy of the compounds on mosquitoes (Ae. aegypti). Between testing, the nets were hung in the lab and held at a temperature of 27-29° C. and 56-67% relative humidity. Each run was performed 6 times for each sample with 10 mosquitoes used in each run (60 mosquitoes total).

[8] = Dose 0.025 nm/cm^2, Time 1 hour
[9] = Dose 0.025 nm/cm^2, Time 24 hours
[10] = Dose 0.0725 nm/cm^2, Time 1 hour
[11] = Dose 0.0725 nm/cm^2, Time 24 hours
[12] = Dose 0.125 nm/cm^2, Time 1 hour
[13] = Dose 0.125 nm/cm^2, Time 24 hours
[14] = Dose 2.5 nm/cm^2, Time 24 hours

Compound: CC1(C)C(C=C(Cl)C(F)(F)F)C1C(=O)OCc1ccc(F)c(C(F)(F)F)c1F (stereo not shown) [Compound 1405]
- Thai (% dead (SE)) [1, 8]: 83.3%
- Thai (% dead (SE)) [1, 9]: 15%
- Thai (% dead (SE)) [1, 10]: 100%
- Thai (% dead (SE)) [1, 11]: 100%
- Thai (% dead (SE)) [1, 12]: 100%
- Thai (% dead (SE)) [1, 13]: 100%
- Thai (% dead (SE)) ([1]; Dose 2.5 nm/cm^2, Time 1 hour): 100%
- Thai (% dead (SE)) [1, 14]: 100%
- contact irritancy and spatial repellency relative to screened compounds (FIG. 3) [2]: superior contact irritancy and spatial repellency relative to most screened compounds
- contact irritancy (FIG. 1) [3]: showed contact irritancy at relatively low doses
- KDR Resisant An. Gambiae (% dead (SE)) ([4]; Dose 0.00025 μg/bottle, Strain Tested F123, Time 1 hour): 55%
- KDR Resisant An. Gambiae (% dead (SE)) ([4]; Dose 0.00025 μg/bottle, Strain Tested F123, Time 24 hours): 37%
- KDR Resisant An. Gambiae (% dead (SE)) ([4]; Dose 0.0025 μg/bottle, Strain Tested F122, Time 1 hour): 100%
- KDR Resisant An. Gambiae (% dead (SE)) ([4]; Dose 0.0025 μg/bottle, Strain Tested F122, Time 24 hours): 66%
- KDR Resisant An. Gambiae (% dead (SE)) ([4]; Dose 0.0025 μg/bottle, Strain Tested F123, Time 1 hour): 92%
- KDR Resisant An. Gambiae (% dead (SE)) ([4]; Dose 0.0025 μg/bottle, Strain Tested F123, Time 24 hours): 100%
- KDR Resisant An. Gambiae (% dead (SE)) ([4]; Dose 0.025 μg/bottle, Strain Tested F122, Time 1 hour): 100%
- KDR Resisant An. Gambiae (% dead (SE)) ([4]; Dose 0.025 μg/bottle, Strain Tested F122, Time 24 hours): 100%
- KDR Resisant An. Gambiae (% dead (SE)) ([4]; Dose 0.025 μg/bottle, Strain Tested F123, Time 1 hour): 100%
- KDR Resisant An. Gambiae (% dead (SE)) ([4]; Dose 0.025 μg/bottle, Strain Tested F123, Time 24 hours): 100%
- KDR Resisant An. Gambiae (% dead (SE)) ([4]; Dose 0.25 μg/bottle, Strain Tested F122, Time 1 hour): 100%
- KDR Resisant An. Gambiae (% dead (SE)) ([4]; Dose 0.25 μg/bottle, Strain Tested F122, Time 24 hours): 100%
- KDR Resisant An. Gambiae (% dead (SE)) ([4]; Dose 0.25 μg/bottle, Strain Tested F123, Time 1 hour): 100%
- KDR Resisant An. Gambiae (% dead (SE)) ([4]; Dose 0.25 μg/bottle, Strain Tested F123, Time 24 hours): 100%
- KDR Resisant An. Gambiae (% dead (SE)) ([4]; Dose 2.5 μg/bottle, Strain Tested F122, Time 1 hour): 100%
- KDR Resisant An. Gambiae (% dead (SE)) ([4]; Dose 2.5 μg/bottle, Strain Tested F122, Time 24 hours): 100%
- KDR Resisant An. Gambiae (% dead (SE)) ([4]; Dose 2.5 μg/bottle, Strain Tested F123, Time 1 hour): 100%
- KDR Resisant An. Gambiae (% dead (SE)) ([4]; Dose 2.5 μg/bottle, Strain Tested F123, Time 24 hours): 100%
- KDR Resisant An. Gambiae (% dead (SE)) ([4]; Dose 25 μg/bottle, Strain Tested F123, Time 1 hour): 100%
- KDR Resisant An. Gambiae (% dead (SE)) ([4]; Dose 25 μg/bottle, Strain Tested F123, Time 24 hours): 100%
- effectiveness against knockdown resistant strains ([4]; summary of Table 3): effective against knockdown resistant strains
- Houston (% dead (SE)) [5, 8]: 100%
- Houston (% dead (SE)) [5, 9]: 100%
- Houston (% dead (SE)) [5, 10]: 100%
- Houston (% dead (SE)) [5, 11]: 100%
- Houston (% dead (SE)) [5, 12]: 100%
- Houston (% dead (SE)) [5, 13]: 100%
- Houston (% dead (SE)) ([5]; Dose 0.25 nm/cm^2, Time 1 hour): 100%
- Houston (% dead (SE)) ([5]; Dose 0.25 nm/cm^2, Time 24 hours): 100%
- Houston (% dead (SE)) ([5]; Dose 2.5 nm/cm^2, Time 1 hour): 100%
- Houston (% dead (SE)) [5, 14]: 100%
- contact irritancy, tolerant strain (FIG. 4) [6]: contact irritants for tolerant strains
- Percent escaping (mean ± SE) ([7]; Time 0 week): 90 ± 5% and 80 ± 5% and 85 ± 4% and 88 ± 5%
- Percent escaping (mean ± SE) ([7]; Time 2 week): 47 ± 6% and 42 ± 7% and 47 ± 3% and 47 ± 4%
- Number escaping (mean +/- SE), treated ([7]; Time 2 week): 1.7 ± 0.6 and 2.2 ± 0.7 and 1.7 ± 0.4
- Number escaping (mean +/- SE), treated ([7]; Time 8 week): 1.8 ± 0.5 and 2.2 ± 0.5 and 1.8 ± 0.9 and 1.5 ± 0.6
